Experimental data reported in patent US20220356169A1, “TETRAZINES FOR HIGH CLICK RELEASE SPEED AND YIELD” (priority 2019, published 2022).
Marks after values point to notes of the source that are not given here.

Columns and labels:
[1] = Cell proliferation assay (MTT); format: cell-based; settings: human, 3 days incubation, mean ± SEM (n = 6), read-out: LS174T cell viability (%); for viability at 72 h, 0.01 μM: 0.01 μM activator; for viability at 72 h, 0.1 μM: 0.1 μM activator; for viability at 72 h, 1 μM: 1 μM activator
Protocol: The human colon carcinoma LS174T cell line was obtained from the American Type Culture Collection and cultured in RPMI-1640 medium supplemented with 2 mM glutamine and 10% heat inactivated fetal calf serum. Twenty-four hours prior to the experiment, the cells were plated in 96-well plates at a 5000 cells/well density. The cells were then incubated with serial dilutions (10 nM-1 μM; n=6) of activators 2.7, 2.8, 2.14, 2.16, 2.17, 2.18 and 2.19 in culture medium for 72h at 37° C. The % cell proliferation was assessed by an MTT assay, in comparison to cells incubated in culture medium without activator. No toxicity was observed when the LS174T cells were incubated with the tested activators (and possible metabolites formed in the presence of serum) for 3-days at a 0.01-1 μM activator concentration.

[2] = system: LS174T xenografts; test: MMAE measurement in tumors; format: in vivo, mice
Protocol: Female nude Balb/C mice were subcutaneously inoculated ca. 1×10^6 LS174T cells in the hind limb. Biodistribution studies started when the tumors reached 0.1-0.2 cm^3 size. Experiments were carried out to evaluate the reactivity between the TCO Trigger on tumor-bound ADC and activators 2.7, 2.8, 2.14 and 2.16 in LS174T xenografts, as previously performed for other activators [Rossin et al Nature Communications 2018, 9, 1484]. The activators were administered at a 20- to 100-lower dose than that used in previous activation and therapy studies (ca. 0.335 mmol/kg). […] Groups of tumor bearing mice (n=4) were injected with ^125I-labeled ADC (2 mg/kg) followed 48 h later by the activators (dose 1×: ca. 3.3 μmol/kg; dose 5×: ca. 16.7 μmol/kg) and, after 1 h, by [^111In]In-2.20 (ca. 0.33 μmol/kg). One group was injected with the same amount of ^125I-labeled ADC followed only by ^111In-2.20 49 h later. One group was injected only with ^111In-2.20 (non-specific probe binding). All mice were euthanized 23 h post-probe injection and the ^125I and ^111In uptakes in tumors were measured by γ-counting.
The concentration of MMAE released in tumors was measured as previously reported [Rossin et al Nature Communications 2018, 9, 1484]. […] For this reason, activator 2.16 was selected for a therapy study in combination with the click-cleavable ADC. At the doses of tc-ADC (4 mg/kg) and 2.16 (dose 10×; 33.5 μmol/kg) used for therapy study, a high level of 339±45 nM free MMAE was detected in tumors.

[3] = system: LS174T xenografts; test: Therapy study in mice with LS174T xenografts; format: in vivo
Protocol: Groups of 10 female nude Balb/C mice were s.c. inoculated ca. 1×10^6 LS174T cells in the hindlimb and the therapy study started when the tumors became palpable (5-11 days after tumor cell inoculation). One group was administered four cycles (one cycle every 4 days) of tc-ADC (ca. 4 mg/kg) followed by activator 2.16 (ca. 33.5 μmol/kg) 48 later. Control groups received four cycles of ADC alone, activator alone, or vehicle. Tumor sizes and body weights were measured 2-3 times per week. […] On the contrary, all control mice were euthanized within 3 weeks from the beginning of the treatment due to large tumor size (>1.5 gr) or poor health conditions with a 15.5-17.5 days median survival. Overall, the repeated treatments were tolerated well by the mice, with no overt signs of hematological toxicity that could be attributed to the use of ADC and activator, either in combination or alone.

[4] = Activator stability in PBS at rt (UV decay at 520 nm); format: physicochemical; settings: mean ± SD (n = 3)
Protocol: The assessment of activator stability was performed in PBS at rt. Solutions in DMSO (2.5 mM, 20 μL) were diluted with PBS (3.00 mL), filtered, and incubated at rt. The decrease of the absorption band at 520 nm was monitored using UV spectroscopy.

[5] = Second-order rate constant of the IEDDA reaction with TCO 3.2, stopped-flow UV-Vis, pseudo first-order conditions; format: physicochemical; settings: 25% MeCN/PBS at 20° C.; mean ± SD (n = 5)
Protocol: (§1) The second-order rate constant of the IEDDA reaction between model TCO 3.2 and activators 2.7 or 2.8 in MeCN at 20° C. was determined (n=1) by UV-Vis spectrometry under second-order conditions. A cuvette was filled with a solution of activator (3 mL 0.083 mM in MeCN), and equilibrated at 20° C. Next, a solution of TCO 3.2 (10.0 μL, 25 mM in DMSO) was added. The absorption at 540 nm was measured every second in a time course experiment. From the decay of this absorption, the conversion x was calculated. The second-order rate constant k2 was determined from the slope of the curve of a plot of 1/c-1/c0 versus time. The second-order rate constant of the IEDDA reaction between model TCO 3.2 and activators 2.7, 2.8, 2.14, 2.16, or 2.17 in 25% MeCN/PBS at 20° C. was determined (n=5) by stopped-flow UV-Vis spectrometry under pseudo first-order conditions. Tetrazine solutions (0.25 mM in 25% MeCN/PBS) and TCO 3.2 (3.45 mM in 25% MeCN/PBS) were mixed in a volume ratio of 1:1, resulting in a concentration of 0.125 mM and 1.73 mM, respectively. The absorption at 520 nm was measured every 50 ms, and from the decay of this absorption, the pseudo first-order rate constant k1′ was determined by a nonlinear Simplex regression analysis of the data points using BioKine software. The second-order rate constant k2 was calculated: k2=k1′/c,TCO. As expected for a cycloaddition reaction, the reactivity in PBS is much higher than in MeCN, and importantly the tetrazines of the invention are at least 1 order of magnitude more reactive than the known and high-releasing 3,6-bismethyl-tetrazine (2.17), while giving similar release yields (see Example 7).

[6] = system: ADC AVP0458-TCO-MMAE; test: Triggered drug (MMAE) release from ADC in 50% mouse plasma, HPLC-SIM-MS; settings: for MMAE release from ADC AVP0458-TCO-MMAE, Release (%) / MMAE release level, in words: 50% mouse plasma, 37° C.; for MMAE release level, in words: after 24h incubation
Protocol: In a 1.5 mL vial, the following was combined: 650 μL mouse plasma, 600 μL PBS, 20 μL ADC (1.62 μg/μL in PBS) and 7.5 μL d8-MMAE solution (0.167 μg/μL, internal standard). Next, aliquots of 20 μL were prepared to which 5.2 μL of a tetrazine solution (0.25 mM in 1:1 DMSO/H2O) was added and the solution was incubated at 37° C. At various times, 100 μL of cold MeCN was added to the aliquot and the mixture was vortexed, stored at 4° C. for 30 min. and centrifuged. 20 μL of supernatant was taken and combined with 100 μL of 1% formic acid (aq) solution. This sample was analysed with HPLC-SIM-MS to quantify the ratio of free MMAE and d8-MMAE, which is a measure of the release yield.

[7] = Triggered release of Construct-A from TCO trigger, HPLC-MS/PDA
Protocol: At the specified time point, the sample was analyzed by HPLC-MS/PDA, and the release yield was determined from the observed amounts of IEDDA adducts, elimination product, and/or released Construct. In case the release was not complete, the sample was incubated at 37° C. for additional time and analyzed once again.

[8] = Second-order rate constant of the IEDDA reaction with TCO 3.2, UV-Vis under second-order conditions in MeCN; format: physicochemical; settings: MeCN at 20° C.; n = 1
Protocol: as §1, with “As expected for a cycloaddition reaction, the reactivity in PBS is much higher than in MeCN, and importantly the tetrazines of the invention are at least 1 order of magnitude more reactive than the known and high-releasing 3,6-bismethyl-tetrazine (2.17), while giving similar release yields (see Example 7).” left out

[9] = 2 min after reaction with activator

## O=C(CCCC(=O)Nc1cnccc1-c1nnc(-c2ccncc2NC(=O)CCCC(=O)NCCOCCOCCOCCOCCOCCOCCOCCOCCOCCO)nn1)NCCOCCOCCOCCOCCOCCOCCOCCOCCOCCO [2.16, N^1,N^1′-(4,4′-(1,2,4,5-Tetrazine-3,6-diyl)bis(pyridine-4,3-diyl))bis(N^5-(29-hydroxy-3,6,9,12,15,18,21,24,27-nonaoxanonacosyl)glutaramide)]
[1]
  viability at 72 h, 0.01 μM: 105 ± 7.4%
  viability at 72 h, 0.1 μM: 96.9 ± 3%
  viability at 72 h, 1 μM: 93.9 ± 2.8%
[2]; 5× dose of activator
  MMAE release in tumors, comparison of activators: significantly higher release
[2]; 24 h after administration of activator at dose 1×
  free MMAE in tumors, comparison of activators: No difference
[3]; four cycles of tc-ADC (ca. 4 mg/kg) followed by activator 2.16 (ca. 33.5 μmol/kg) 48 later
  time for which growth of LS174T tumors was completely inhibited: over 3 weeks
[3]; four cycles, one cycle every 4 days, treated group: tc-ADC ca. 4 mg/kg + 2.16 ca. 33.5 μmol/kg, controls: ADC alone, activator alone, or vehicle
  median overall survival: 42 days
[4]
  half-life at 16.6 µM: 4.2 ± 0.1 h
[5]
  Calculated k2 values for the reaction between tetrazine activators and TCO 3.2 in PBS: 519 ± 12 M⁻¹ s⁻¹
[6]; [9]
  MMAE release from ADC AVP0458-TCO-MMAE, Release (%): 1.9%
[6]; 10 min
  MMAE release from ADC AVP0458-TCO-MMAE, Release (%): 19.4%
[6]; 1 h
  MMAE release from ADC AVP0458-TCO-MMAE, Release (%): 70.7%
[6]; 5 h
  MMAE release from ADC AVP0458-TCO-MMAE, Release (%): 82.8%
[6]; 24 h, mean ± SD (n = 3)
  MMAE release from ADC AVP0458-TCO-MMAE, Release (%): 95.6 ± 0.6%
[6]
  MMAE release level, in words: as high as that obtained with the less reactive 2.17

## CC(=O)Nc1cnccc1-c1nnc(-c2ccncc2NC(C)=O)nn1 [2.4, N,N′-(4,4′-(1,2,4,5-Tetrazine-3,6-diyl)bis(pyridine-4,3-diyl))diacetamide]
[6]; 24 h, mean ± SD (n = 3)
  MMAE release from ADC AVP0458-TCO-MMAE, Release (%): 96.0 ± 0.3%

## c1cc(-c2nnc(-c3ccncc3)nn2)ccn1 [2.19, 3,6-bis(4-pyridinyl)-tetrazine, reference compound]
[1]
  viability at 72 h, 0.01 μM: 87 ± 2.6%
  viability at 72 h, 0.1 μM: 88.7 ± 2.5%
  viability at 72 h, 1 μM: 91.3 ± 3%

## CC(=O)Nc1cccnc1-c1nnc(-c2ncccc2NC(C)=O)nn1 [2.2, N,N′-(2,2′-(1,2,4,5-Tetrazine-3,6-diyl)bis(pyridine-3,2-diyl))diacetamide]
[7]; TCO 3.11, doxorubicin, 18 h, 37° C.
  Construct release %: 18 h: 74%
[7]; TCO 3.11, doxorubicin, 42 h, 37° C.
  Construct release %: 42 h: 81%
[7]; TCO 3.11, released construct doxorubicin, 5 min
  Construct release %: 5 min: 4%
[7]; TCO 3.23, released construct dimethylamine, 5 min
  Construct release %: 5 min: 100%
[7]; TCO 3.32, released construct dimethylamine, 5 min
  Construct release %: 5 min: 98%
[6]; 24 h, mean ± SD (n = 3)
  MMAE release from ADC AVP0458-TCO-MMAE, Release (%): 79.3 ± 0.4%

## Oc1cnccc1-c1nnc(-c2ccncc2O)nn1 [2.8, 4,4′-(1,2,4,5-Tetrazine-3,6-diyl)bis(pyridin-3-ol)]
[1]
  viability at 72 h, 0.01 μM: 96.9 ± 3.6%
  viability at 72 h, 0.1 μM: 98.4 ± 3.6%
  viability at 72 h, 1 μM: 93.9 ± 5.2%
[8]
  Calculated k2 values for the reaction between tetrazine activators and TCO 3.2 in MeCN: 10 M⁻¹ s⁻¹
[4]
  half-life at 16.6 µM: 6.5 ± 0.6 h
[5]
  Calculated k2 values for the reaction between tetrazine activators and TCO 3.2 in PBS: 270 ± 11 M⁻¹ s⁻¹
[6]; [9]
  MMAE release from ADC AVP0458-TCO-MMAE, Release (%): 48.7%
[6]; 10 min
  MMAE release from ADC AVP0458-TCO-MMAE, Release (%): 83.4%
[6]; 1 h
  MMAE release from ADC AVP0458-TCO-MMAE, Release (%): 92.7%
[6]; 5 h
  MMAE release from ADC AVP0458-TCO-MMAE, Release (%): 93.6%
[6]; 24 h, mean ± SD (n = 3)
  MMAE release from ADC AVP0458-TCO-MMAE, Release (%): 94.3 ± 1.3%
[6]
  MMAE release level, in words: as high as that obtained with the less reactive 2.17
[6]; compared with 2.17
  MMAE release speed, in words: faster

## Nc1cnccc1-c1nnc(-c2ccncc2N)nn1 [2.3, 4,4′-(1,2,4,5-Tetrazine-3,6-diyl)bis(pyridin-3-amine)]
[6]; 24 h, mean ± SD (n = 3)
  MMAE release from ADC AVP0458-TCO-MMAE, Release (%): 88.5 ± 0.1%

## Cc1nnc(C)nn1 [2.17, 3,6-bismethyl-tetrazine, reference compound]
[1]
  viability at 72 h, 0.01 μM: 90.2 ± 4.5%
  viability at 72 h, 0.1 μM: 87.9 ± 6.4%
  viability at 72 h, 1 μM: 85.7 ± 7.4%

## Nc1cccnc1-c1nnc(-c2ncccc2N)nn1 [2.1, 2,2′-(1,2,4,5-Tetrazine-3,6-diyl)bis(pyridin-3-amine)]
[6]; 24 h, mean ± SD (n = 3)
  MMAE release from ADC AVP0458-TCO-MMAE, Release (%): 32.1 ± 0.7^b %

## c1ccc(-c2nnc(-c3ccccn3)nn2)nc1 [2.18, 3,6-bis(2-pyridinyl)-tetrazine, reference compound]
[1]
  viability at 72 h, 0.01 μM: 101 ± 3%
  viability at 72 h, 0.1 μM: 101 ± 2.8%
  viability at 72 h, 1 μM: 102 ± 3.6%
